Like-named read-outs stand apart in the source and are kept apart here.
Experiments:
[1] = test system: IL-4 induced STAT6 phosphorylation in THP-1 human monocytic cells
[2] = test system: IL-13 induced STAT6 phosphorylation in BEAS-2B human lung epithelial cells
JAK1 = JAK1 (Homo sapiens (Human), UniProt P23458); format: biochemical
Protocol: Assay 1: Biochemical JAK and Off-Target Kinase Assays
A panel of four LanthaScreen JAK biochemical assays (JAK1, 2, 3 and Tyk2) were carried in a common kinase reaction buffer (50 mM HEPES, pH 7.5, 0.01% Brij-35, 10 mM MgCl2, and 1 mM EGTA). Recombinant GST-tagged JAK enzymes and a GFP-tagged STAT1 peptide substrate were obtained from Life Technologies.
Serially diluted compounds were pre-incubated with each of the four JAK enzymes and the substrate in white 384-well microplates (Corning) at ambient temperature for 1 h. ATP was subsequently added to initiate the kinase reactions in 10 μL total volume, with 1% DMSO. […] Kinase reactions were allowed to proceed for 1 hour at ambient temperature before a 10 μL preparation of EDTA (10 mM final concentration) and Tb-anti-pSTAT1 (pTyr701) antibody (Life Technologies, 2 nM final concentration) in TR-FRET dilution buffer (Life Technologies) was added. The plates were allowed to incubate at ambient temperature for 1 h before being read on the EnVision reader (Perkin Elmer).
Results were expressed as pIC50 (negative logarithm of IC50) and subsequently converted to pKi (negative logarithm of dissociation constant, Ki) using the Cheng-Prusoff equation.

[3] = test system: oxazolone-induced colitis; assay: Mouse model of oxazolone-induced colitis; format: in vivo, BALB/C mice; conditions: PO, 1, 3, and/or 10 mg/kg BID (doses up to 10 mg/kg BID)
Protocol: Assay 7: Mouse Model of Oxazalone-Induced Colitis
Oxazolone-induced colitis is an experimental model that has a histological resemblance to human ulcerative colitis (Heller et al. Immunology, 2002, 17, 629-638). Adult BALB/C mice from Harlan were used in the assay. On day 1, animals were lightly anesthetized with isoflurane and the hairs between the shoulder were carefully removed before oxazolone (4%, 150 μL, 4:1 acetone:olive oil formulation) or vehicle solution was slowly applied for skin sensitization. Seven days after skin sensitization, the mice were fasted overnight, anesthetized with isoflurane inhalation, and a 1 mL syringe equipped with a 3.5-F catheter, filled with oxazolone solution, was inserted carefully about 4 cm into the colon of the mouse. Following insertion, 50 μL of the oxazolone solution (1%, 1:1 ethanol:water formulation) was injected very slowly (over 30 sec using an injection pump) into the colon. The catheter was removed and the mice were held vertically (head down) for 2 min to ensure that the entire oxazolone solution remained inside the colon. Drug treatment (PO, BID or TID) or vehicle was initiated a day prior to the oxazolone intrarectal (IR) challenge. Two-day post oxazolone intrarectal challenge, the Disease Activity Index (DAI) was assessed by treatment-blinded experimenters for each mouse according to the criteria score: stool consistency score (0, normal; 2, loose; 4, diarrhea), gross bleeding score (0, absence; 2, blood tinged; 4, presence), and weight loss score (0, none; 1, 1%-5%; 2, 5%-10^%; 3, 10%-20%; 4, more than 20%); DAI=average of (stool consistency score+gross bleeding score+weight loss score).
Selected compounds of the invention were tested in the assay. Efficacy in the model is evidenced by a decrease in DAI score as compared with the score from vehicle treated animals.

[4] = THP-1 cells, IL-4 induced STAT6 phosphorylation
[5] = BEAS-2B cells, IL-13 induced STAT6 phosphorylation

Sequence of JAK1 (P23458 whole entry): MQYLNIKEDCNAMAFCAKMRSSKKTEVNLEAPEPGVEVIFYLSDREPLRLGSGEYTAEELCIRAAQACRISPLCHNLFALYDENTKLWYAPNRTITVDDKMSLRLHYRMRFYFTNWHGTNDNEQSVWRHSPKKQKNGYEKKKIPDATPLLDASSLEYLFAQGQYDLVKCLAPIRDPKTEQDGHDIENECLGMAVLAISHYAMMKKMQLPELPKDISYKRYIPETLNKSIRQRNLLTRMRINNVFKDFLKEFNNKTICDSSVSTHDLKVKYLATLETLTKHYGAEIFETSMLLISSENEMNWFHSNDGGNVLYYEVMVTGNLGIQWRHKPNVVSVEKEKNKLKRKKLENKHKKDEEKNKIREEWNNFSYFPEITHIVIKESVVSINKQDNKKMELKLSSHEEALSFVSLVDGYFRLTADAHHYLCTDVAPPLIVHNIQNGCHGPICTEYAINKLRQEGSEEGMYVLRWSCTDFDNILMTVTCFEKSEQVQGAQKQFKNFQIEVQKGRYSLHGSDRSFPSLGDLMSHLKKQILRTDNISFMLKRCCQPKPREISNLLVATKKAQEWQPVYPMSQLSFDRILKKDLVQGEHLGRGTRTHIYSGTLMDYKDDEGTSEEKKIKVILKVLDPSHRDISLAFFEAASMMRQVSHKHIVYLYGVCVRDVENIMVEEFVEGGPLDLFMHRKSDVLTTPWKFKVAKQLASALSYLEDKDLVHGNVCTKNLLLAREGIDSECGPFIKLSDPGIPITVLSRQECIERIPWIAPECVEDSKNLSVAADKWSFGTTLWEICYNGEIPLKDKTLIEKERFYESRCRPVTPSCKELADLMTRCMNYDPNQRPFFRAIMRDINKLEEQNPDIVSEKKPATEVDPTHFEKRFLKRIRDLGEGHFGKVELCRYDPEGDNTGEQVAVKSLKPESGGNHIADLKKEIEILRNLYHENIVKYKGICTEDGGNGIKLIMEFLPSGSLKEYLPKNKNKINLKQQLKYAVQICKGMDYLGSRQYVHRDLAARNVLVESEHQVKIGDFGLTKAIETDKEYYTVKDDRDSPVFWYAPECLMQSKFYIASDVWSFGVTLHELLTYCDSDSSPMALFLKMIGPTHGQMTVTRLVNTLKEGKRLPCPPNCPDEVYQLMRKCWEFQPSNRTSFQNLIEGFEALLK

Structure (SMILES): CCS(=O)(=O)N1[C@@H]2CC[C@H]1C[C@H](Nc1nc(Nc3cc(C)[nH]n3)cc3nc(CN4CCOCC4)ccc13)C2 [Example 5-16]
- THP-1 IL4 pIC50 [1, 4]: B (B represents a pEC50 value between 6.7 and 7.5 (EC50 between 200 nM and 32 nM))
- BEAS2B pIC50 [2, 5]: B (B represents a pEC50 value between 6.7 and 7.5 (EC50 between 200 nM and 32 nM))

Structure (SMILES): COC(=O)C1(C(=O)N2[C@@H]3CCC[C@H]2C[C@H](Nc2nc(Nc4cc(C)[nH]n4)cc4ncccc24)C3)CC1 [Example 2-21]
- JAK 1 (pKi) (JAK1): B (B represents a pKi value between 9 and 10 (Ki between 1 nM and 0.1 nM))

Structure (SMILES): CCC(=O)N1[C@@H]2CC[C@H]1C[C@H](Nc1nc(Nc3cc(C)[nH]n3)cc3ncccc13)C2 [Example 2-1]
- THP-1 IL4 pIC50 [1, 4]: B (B represents a pEC50 value between 6.7 and 7.5 (EC50 between 200 nM and 32 nM))
- DAI score as compared with vehicle treated animals [3]: did not exhibit a statistically significant decrease
- BEAS2B pIC50 [2, 5]: B (B represents a pEC50 value between 6.7 and 7.5 (EC50 between 200 nM and 32 nM))

Structure (SMILES): Cc1cc(Nc2cc3ncccc3c(N[C@@H]3C[C@H]4CC[C@@H](C3)N4CC3(C#N)CC3)n2)n[nH]1 [Example 1-24]
- THP-1 IL4 pIC50 [1, 4]: B (B represents a pEC50 value between 6.7 and 7.5 (EC50 between 200 nM and 32 nM))
- BEAS2B pIC50 [2, 5]: A (A represents a pEC50 value ≥7.5 (EC50≤32 nM))

Structure (SMILES): Cc1cc(Nc2cc3ncccc3c(N[C@@H]3C[C@H]4CC[C@@H](C3)N4Cc3ccc(O)cc3)n2)n[nH]1 [Example 1-18]
- THP-1 IL4 pIC50 [1]: C (key: A represents a pEC50 value ≥7.5 (EC50≤32 nM); B represents a pEC50 value between 6.7 and 7.5 (EC50 between 200 nM and 32 nM); C represents a pEC50 value <6.7 (EC50>200 nM))

Structure (SMILES): Cc1cc(Nc2cc3ncccc3c(N[C@@H]3C[C@H]4CC[C@@H](C3)N4C(=O)C3(C)CCCC3)n2)n[nH]1 [Example 2-10]
- JAK 1 (pKi) (JAK1): B (B represents a pKi value between 9 and 10 (Ki between 1 nM and 0.1 nM))
- THP-1 IL4 pIC50 [1]: B (key: A represents a pEC50 value ≥7.5 (EC50≤32 nM); B represents a pEC50 value between 6.7 and 7.5 (EC50 between 200 nM and 32 nM); C represents a pEC50 value <6.7 (EC50>200 nM))

Structure (SMILES): Cc1cc(Nc2cc3ncccc3c(N[C@@H]3C[C@H]4CC[C@@H](C3)N4C(=O)c3ccncc3)n2)n[nH]1 [Example 2-13]
- THP-1 IL4 pIC50 [1]: B (key: A represents a pEC50 value ≥7.5 (EC50≤32 nM); B represents a pEC50 value between 6.7 and 7.5 (EC50 between 200 nM and 32 nM); C represents a pEC50 value <6.7 (EC50>200 nM))

Structure (SMILES): COC(=O)C1(C(=O)N2[C@@H]3CC[C@H]2C[C@H](Nc2nc(Nc4cc(C)[nH]n4)cc4ncccc24)C3)CC1 [Example 2-9]
- THP-1 IL4 pIC50 [1, 4]: C (C represents a pEC50 value <6.7 (EC50>200 nM))

Structure (SMILES): Cc1cc(Nc2cc3ncccc3c(N[C@@H]3C[C@H]4CC[C@@H](C3)N4CC3COC(=O)O3)n2)n[nH]1 (stereo partly shown) [Example 1-30]
- THP-1 IL4 pIC50 [1]: B (key: A represents a pEC50 value ≥7.5 (EC50≤32 nM); B represents a pEC50 value between 6.7 and 7.5 (EC50 between 200 nM and 32 nM); C represents a pEC50 value <6.7 (EC50>200 nM))

Structure (SMILES): Cc1cc(Nc2cc3ncccc3c(N[C@@H]3C[C@H]4CC[C@@H](C3)N4C3CCCOC3=O)n2)n[nH]1 (stereo partly shown) [Example 1-28]
- THP-1 IL4 pIC50 [1]: C (key: A represents a pEC50 value ≥7.5 (EC50≤32 nM); B represents a pEC50 value between 6.7 and 7.5 (EC50 between 200 nM and 32 nM); C represents a pEC50 value <6.7 (EC50>200 nM))

Structure (SMILES): Cc1cc(Nc2cc3ncccc3c(N[C@@H]3C[C@H]4CC[C@@H](C3)N4C(=O)c3cccnc3)n2)n[nH]1 [Example 2-14]
- JAK 1 (pKi) (JAK1): B (B represents a pKi value between 9 and 10 (Ki between 1 nM and 0.1 nM))
- THP-1 IL4 pIC50 [1]: C (key: A represents a pEC50 value ≥7.5 (EC50≤32 nM); B represents a pEC50 value between 6.7 and 7.5 (EC50 between 200 nM and 32 nM); C represents a pEC50 value <6.7 (EC50>200 nM))

Structure (SMILES): CCC1(S(=O)(=O)N2[C@@H]3CCC[C@H]2C[C@H](Nc2nc(Nc4cc(C)[nH]n4)cc4ncccc24)C3)CC1 [Example 4-20]
- BEAS2B pIC50 [2]: A (key: A represents a pEC50 value ≥7.5 (EC50≤32 nM); B represents a pEC50 value between 6.7 and 7.5 (EC50 between 200 nM and 32 nM); C represents a pEC50 value <6.7 (EC50>200 nM))

Structure (SMILES): Cc1cc(Nc2cc3ncccc3c(N[C@@H]3C[C@H]4CC[C@@H](C3)N4C(=O)C(F)F)n2)n[nH]1 [Example 5, 2,2-difluoro-1-((1R,3s,5S)-3-((7-((5-methyl-1H-pyrazol-3-yl)amino)-1,6-naphthyridin-5-yl)amino)-8-azabicyclo[3.2.1]octan-8-yl)ethan-1-one]
- DAI score as compared with vehicle treated animals [3]: statistically significant decrease

Structure (SMILES): Cc1cc(Nc2cc3ncccc3c(N[C@@H]3C[C@H]4CCC[C@@H](C3)N4C(=O)C(C)(C)CO)n2)n[nH]1 [Example 2-22]
- DAI score as compared with vehicle treated animals [3]: did not exhibit a statistically significant decrease

Structure (SMILES): Cc1cc(Nc2cc3nc(CO)ccc3c(N[C@@H]3C[C@H]4CC[C@@H](C3)N4CCC#N)n2)n[nH]1 [Example 5-11]
- DAI score as compared with vehicle treated animals [3]: did not exhibit a statistically significant decrease

Structure (SMILES): Cc1cc(Nc2cc3ncccc3c(N[C@@H]3C[C@H]4CCC[C@@H](C3)N4C(=O)C3(C)CCCC3)n2)n[nH]1 [Example 2-23]
- JAK 1 (pKi) (JAK1): B (B represents a pKi value between 9 and 10 (Ki between 1 nM and 0.1 nM))

Structure (SMILES): Cc1cc(Nc2cc3ncccc3c(N[C@H]3C[C@H]4CCC[C@@H](C3)N4C3CCOC3=O)n2)n[nH]1 (stereo partly shown) [Example 1-52]
- THP-1 IL4 pIC50 [1, 4]: B (B represents a pEC50 value between 6.7 and 7.5 (EC50 between 200 nM and 32 nM))

Structure (SMILES): CCS(=O)(=O)N1[C@@H]2CC[C@H]1C[C@H](Nc1nc(Nc3cc(C)[nH]n3)cc3ncccc13)C2 [Example 7, N^5-((1R,3s,5S)-8-(ethylsulfonyl)-8-azabicyclo[3.2.1]octan-3-yl)-N^7-(5-methyl-1H-pyrazol-3-yl)-1,6-naphthyridine-5,7-diamine]
- DAI score as compared with vehicle treated animals [3]: did not exhibit a statistically significant decrease

Structure (SMILES): Cc1cc(Nc2cc3ncccc3c(N[C@@H]3C[C@H]4CCC[C@@H](C3)N4CC(=O)N(C)C)n2)n[nH]1 [Example 1-38]
- DAI score as compared with vehicle treated animals [3]: statistically significant decrease

Structure (SMILES): COCCS(=O)(=O)N1[C@@H]2CC[C@H]1C[C@H](Nc1nc(Nc3cc(C)[nH]n3)cc3ncccc13)C2 [Example 6, N^5-((1R,3s,5S)-8-((2-methoxyethyl)sulfonyl)-8-azabicyclo[3.2.1]octan-3-yl)-N^7-(5-methyl-1H-pyrazol-3-yl)-1,6-naphthyridine-5,7-diamine]
- DAI score as compared with vehicle treated animals [3]: statistically significant decrease

Structure (SMILES): Cc1cc(Nc2cc3ncccc3c(N[C@@H]3C[C@H]4CCC[C@@H](C3)N4C(=O)Cc3ccccc3)n2)n[nH]1 [Example 2-24]
- DAI score as compared with vehicle treated animals [3]: did not exhibit a statistically significant decrease

Structure (SMILES): Cc1cc(Nc2cc3ncccc3c(N[C@@H]3C[C@H]4CCC[C@@H](C3)N4C(=O)CN(C)C)n2)n[nH]1 [Example 4, 2-(Dimethylamino)-1-((1R,3s,5S)-3-((7-((5-methyl-1H-pyrazol-3-yl)amino)-1,6-naphthyridin-5-yl)amino)-9-azabicyclo[3.3.1]nonan-9-yl)ethan-1-one]
- DAI score as compared with vehicle treated animals [3]: statistically significant decrease

Structure (SMILES): CCC(C)C(=O)N1C2CCC1CC(Nc1nc(Nc3cc(C)[nH]n3)cc3ncccc13)C2 (stereo not shown) [Example 2-6]
- DAI score as compared with vehicle treated animals [3]: did not exhibit a statistically significant decrease

Structure (SMILES): Cc1cc(Nc2cc3ncccc3c(N[C@@H]3C[C@H]4CC[C@@H](C3)N4S(=O)(=O)Cc3ccccc3)n2)n[nH]1 [Example 4-13]
- DAI score as compared with vehicle treated animals [3]: did not exhibit a statistically significant decrease

Structure (SMILES): Cc1cc(Nc2cc3ncccc3c(N[C@@H]3C[C@H]4CC[C@@H](C3)N4C(=O)c3ccccc3)n2)n[nH]1 [Example 2-12]
- THP-1 IL4 pIC50 [1]: B (key: A represents a pEC50 value ≥7.5 (EC50≤32 nM); B represents a pEC50 value between 6.7 and 7.5 (EC50 between 200 nM and 32 nM); C represents a pEC50 value <6.7 (EC50>200 nM))

Reference: patent publication US11780852B2, “Methods for treating Crohn's disease using 3-((1R,3s,5S)-3-((7-((5-methyl-1H-pyrazol-3-yl)amino)-1,6-naphthyridin-5-yl)amino)-8-azabicyclo[3.2.1]octan-8-yl)propanenitrile” (priority 2015, dated 2023)
